These results are taken from patent EP0181592B1, “Use of spergualin derivatives for the preparation of medicaments having immunosuppressive activity” (MICROBIAL CHEMISTRY RESEARCH FOUNDATION, priority 1984, dated 1986).

Series [1] can be described thus: Toxicity to mice (LD50, single intraperitoneal administration). The following applies: mouse, in vivo, ip, read-out: LD₅₀. The source says: The compounds of the formula I are characterized by relatively low toxicity and small accumulation of toxicity upon continuous administration.
Series [2] concerns Spleen cells from BALB/C mice. As to the kind of experiment: Inhibition of ConA-induced T-lymphocyte blast genesis (3H-thymidine uptake). The format is cell-based. Conditions: for inhibition of the reaction of T-lymphocyte blast genesis (in words): ConA-stimulated; for inhibition at 10 µg/mL / inhibition at 100 µg/mL: Mus musculus, T-lymphocyte, ConA 5 µg/ml, 72 hours; for inhibition at 10 µg/mL: 10 µg/ml compound; for inhibition at 100 µg/mL: 100 µg/ml compound. The procedure: (§1) Spleen cells from BALB/C mice were distributed among wells in a microplate so that each well contained 2 x 10⁵ cells/0.2 ml. Each of the selected test compounds was added to all wells but one, the latter being used as a control. ConA (5 µg/ml) was added to all the wells and the so prepared cell suspensions were cultivated in a 5% CO₂ incubator for 72 hours at 37°C. Eight hours before the completion of the incubation, 1 µCi of ³H-thymidine was added to each well and the uptake of the thymidine by the cultured cells was measured with a liquid scintillation counter to estimate the progress of reaction of T-lymphocyte blast genesis. The percentage inhibition of the genesis by each of the test compounds was calculated by: (1 - Bdpm/Adpm) x 100 wherein Adpm indicates the uptake count for the addition of ConA alone and Bdpm, the count for the addition of both ConA and the test compound.

In series [3] the test system is Mice Sensitized by Sheep Red Blood Cells. As to the kind of experiment: Inhibition of delayed-type hypersensitivity in mice sensitized by sheep red blood cells (footpad swelling). Conditions: relative to saline control = 100%, measured at the 24th hour. Type of series: in vivo, CDFl mice. Here is the method:
CDFl mice (8-wk-old, female) were sensitized by intravenous injection of 1 x 10⁵ sheep red blood cells. Four days later, the sensitized mice were subcutaneously injected in one footpad with 1 x 10⁸ sheep red blood cells so as to induce delayed-type hypersensitivity. The swelling of the footpad was measured at the 24th hour with a micrometer. Each of the test compounds was administered intraperitoneally in the amounts (mg/kg) indicated in Table 3 for a period of 3 days that started on the day following the initial sensitization. The degree of footpad swelling was indicated in relative values, with the value for a control given physiological saline instead of the test compounds being taken as 100%.

Series [4] deals with Spleen cells from BALB/C mice. Nature of the series: Inhibition of LPS-induced B-lymphocyte blast genesis (3H-thymidine uptake). The format is cell-based. Conditions: for suppression of LPS-induced genesis of B-lymphocyte blasts (in words): LPS-stimulated; for inhibition at 10 µg/mL / inhibition at 100 µg/mL: Mus musculus, 100 µg/ml of LPS from E. coli; for inhibition at 10 µg/mL: 10 µg/ml compound; for inhibition at 100 µg/mL: 100 µg/ml compound. Here is the method: as §1
The uptake of ³H-thymidine by B-cell blasts was measured in accordance with the method used in Test Example 2, except that the inducer ConA was replaced by 100 µg/ml of LPS from E. coli. The percentage inhibition of blast genesis by selected test compounds was also determined by the same method as used in Text Example 2.

A further series relates to CDFl mice. As to the kind of experiment: Inhibition of production of antibodies against sheep red blood cells (plaque-forming spleen cells). Type of series: in vivo. Conditions: 12.5 mg/kg per day intraperitoneally for 3 days; plaque-forming spleen cells counted. The source says: The compounds of the formula I exert inhibitory effects on the function of lymphocytes of immunological importance. […] Therefore in vivo experiments have been conducted to examine the effects of the compounds of the formula I on T-lymphocytes. First, in accordance with the method of Lagrange et al. (Lagrange et al., Journal of Experimental Medicine, 139, 528-542, 1974), the compounds of the formula I were examined for their effects on delayed-type hypersensivity in mice that had been sensitized with sheep red blood cells. The delayed-type hypersensivity could be blocked by administering the compound for three consecutive days following the sensitization with sheep red blood cells. Additionally, in accordance with the method of Jerne et al. (Jerne et al., Cell-bound Antibodies, pp. 109-122, 1963), the compounds of the formula I were checked for their effects on the plaque-forming ability of spleen cells from mice sensitized by antigenic sheep red blood cells.
CDFl mice (6-10 wk old, female) were immunized by intravenous injection of 1 x 10⁸ sheep red blood cells. The mice were intraperitoneally administered 12.5 mg/kg per day of selected test compounds for a period of 3 days starting from the day following the intravenous injection. Four days later, spleen cells were isolated from the mice and the number of plaque-forming cells was counted. The percentage inhibition of antibody production was calculated by (1 - B/A) x 100 wherein A is the count for a control group (given physiological saline) and B, for the treated group.

Where [5] appears, read: 3.13 mg/kg intraperitoneally for 3 days.
Where [6] appears, read: 12.5 mg/kg intraperitoneally for 3 days.
Setting [7] is: 0.20 mg/kg intraperitoneally for 3 days.
The mark [8] stands for this setting: 0.78 mg/kg intraperitoneally for 3 days.
Where [9] appears, read: 6.25 mg/kg intraperitoneally for 3 days.
Where [10] appears, read: 25 mg/kg intraperitoneally for 3 days.

Molecules are shown by their SMILES.

Consider `N=C(N)NCCCCC=CC(=O)NC(O)C(=O)NCCCCNCCCN` (centres unmarked) [(11), N-[4-(3-aminopropyl)aminobutyl]-2-[7-guanidinohepta-2-enamido]-2-hydroxyethaneamide], for which the LD50 in series [1] is 25 to 50 mg/kg. In series [2], the “inhibition of the reaction of T-lymphocyte blast genesis (in words)” value (shortened to “inhibition of the reaction … (in words)”) is on record as “strong ability to inhibit”, testing at 10 µg/mL gave an inhibition of 88% and 100 µg/mL produced 100% inhibition. Further, the “Footpad swelling (%)” value in series [3] (setting [5]) is given as 40%. In addition, in series [3] (setting [6]), the “Footpad swelling (%)” value is listed as 8.5%. Moreover, in series [4], the “suppression of LPS-induced genesis of B-lymphocyte blasts (in words)” value (from here on “suppression”) is given as “highly effective in suppressing”, testing at 10 µg/mL gave an inhibition of 98% and the inhibition at 100 µg/mL was 100%.

As for `N=C(N)NCCCCCCC(=O)N[C@@H](CO)C(=O)NCCCCNCCCN` [(5), N-[4-(3-aminopropyl)aminobutyl]-2-(7-guanidinoheptaneamido)-(S)-2-hydroxymethylethaneamide], in the series on CDFl mice, the “percentage inhibition of antibody production” value (from here on “percentage inhibition”) is on record as 89,4%. Further, the LD50 in series [1] lay within 12.5 to 25 mg/kg. Besides, the “inhibition of the reaction … (in words)” value in series [2] is listed as “strong ability to inhibit”. Besides, the results for the inhibition at 10 µg/mL in series [2] and in series [4] were 96% and 88%, respectively. The inhibition at 100 µg/mL in series [2] and in series [4] was 100% in each case. The “Footpad swelling (%)” value in series [3] (setting [7]) was 81%; in series [3] (setting [8]), 117%; in series [3] (setting [5]) it was 58%. Besides, the “suppression” value in series [4] is “highly effective in suppressing”.

On to `COC(NC(=O)CCCCCCNC(=N)N)C(=O)NCCCCNCCCN` (centres unmarked) [(2), N-[4-(3-aminopropyl)aminobutyl]-2-(7-guanidinoheptaneamino)-2-methoxyethaneamide], for which the “percentage inhibition” value in the series with CDFl mice came out at 95.9%. For the same compound, the LD50 in series [1] was in the range of 12.5 to 25 mg/kg. The “Footpad swelling (%)” value was determined as 99% in series [3] (setting [7]), 49% in series [3] (setting [8]) and 5.5% in series [3] (setting [5]).

Regarding `N=C(N)Nc1ccc(CCCC(=O)N[C@@H](CO)C(=O)NCCCCNCCCN)cc1` [(7), N-[4-(3-aminopropyl)aminobutyl]-2-[4-(p-guanidinophenyl)-butaneamido]-(S)-2-hydroxymethylethaneamide], the LD50 in series [1] lay within 25 to 50 mg/kg. Moreover, the “Footpad swelling (%)” value in series [3] (setting [9]) amounted to 54%; in series [3] (setting [10]) it was 42%.

`N=C(N)NCCCCCCCCC(=O)NC(O)C(=O)NCCCCNCCCN` (centres unmarked) [(3), N-[4-(3-aminopropyl)aminobutyl]-2-(9-guanidinononaneamido)-2-hydroxyethaneamide]: the LD50 in series [1] lay in the range of 12.5 to 25 mg/kg. Also, the “Footpad swelling (%)” value worked out at 55% in series [3] (setting [7]), 32% in series [3] (setting [8]), 11% in series [3] (setting [5]) and 6.6% in series [3] (setting [6]).

Turning to `N=C(N)NCc1ccc(CCC(=O)N[C@@H](CO)C(=O)NCCCCNCCCN)cc1` [(8), N-[4-(3-aminopropyl)aminobutyl]-2-[3-(p-guanidinomethylphenyl)propaneamido]-(S)-2-hydroxymethylethaneamide], the LD50 in series [1] is 25 to 50 mg/kg. Further, in series [2], the “inhibition of the reaction … (in words)” value is “strong ability to inhibit”, the inhibition at 10 µg/mL is 79% and at 100 µg/mL the inhibition was 100%. Further, the “Footpad swelling (%)” value in series [3] (setting [5]) came out at 50%. Further, in series [3] (setting [6]), the “Footpad swelling (%)” value is listed as 20%.

For the compound `N=C(N)NCCCCCCC(=O)NCC(=O)NCCCCNCCCN` [(4), N-[4-(3-aminopropyl)aminobutyl]-2-(7-guanidinoheptaneamido)-ethaneamide], the “percentage inhibition” value with CDFl mice is 89,4%. Also, the LD50 in series [1] is 12.5 to 25 mg/kg. Moreover, in series [2], the “inhibition of the reaction … (in words)” value is recorded as “strong ability to inhibit”, 10 µg/mL produced 99% inhibition and the inhibition at 100 µg/mL was 100%. Also, in series [3] (0.39 mg/kg intraperitoneally for 3 days), the “Footpad swelling (%)” value amounted to 99%. Also, the “Footpad swelling (%)” value in series [3] (setting [8]) was 111%. In addition, the “Footpad swelling (%)” value in series [3] (setting [9]) is recorded as 46%. For the same compound, in series [4], the “suppression” value is on record as “highly effective in suppressing”, the inhibition at 10 µg/mL came to 100% and the inhibition at 100 µg/mL was 100%.

Consider `COC(NC(=O)C=CCCCCNC(=N)N)C(=O)NCCCCNCCCN` (centres unmarked) [(10), N-[4-(3-aminopropyl)aminobutyl]-2-[7-guanidinohepta-2-enamido]-2-methoxyethaneamide], for which the LD50 in series [1] was 25 to 50 mg/kg. Besides, the figures for the “Footpad swelling (%)” value in series [3] (setting [5]) and in series [3] (setting [6]) were 37% and 6.0%, respectively.

Consider `N=C(N)Nc1ccc(CCCCC(=O)N[C@@H](CO)C(=O)NCCCCNCCCN)cc1` [(9), N-[4-(3-aminopropyl)aminobutyl]-2-[5-(p-guanidinophenyl)-pentaneamido]-(S)-2-hydroxymethylethaneamide], for which, in series [1], the LD50 lay within 25 to 50 mg/kg. For the same compound, the “Footpad swelling (%)” value is recorded as 45% in series [3] (setting [5]) and 52% in series [3] (setting [6]).

With `N=C(N)NCCCC[C@H](O)CC(=O)NC(O)C(=O)NCCCCNCCCN` (some centres unmarked) [Spergualin], the “Footpad swelling (%)” value is on record as 106% in series [3] (setting [5]) and 28% in series [3] (setting [6]).

Consider `N=C(N)Nc1ccc(CCCC(=O)NCC(=O)NCCCCNCCCN)cc1` [(6), N-[4-(3-aminopropyl)aminobutyl]-2-[4-(p-guanidinophenyl)butaneamido]ethaneamide], for which the “percentage inhibition” value in the series on CDFl mice is on record as 92,9%. Besides, the LD50 in series [1] lay within 25 to 50 mg/kg. In addition, in series [2], the “inhibition of the reaction … (in words)” value is “strong ability to inhibit”, the inhibition at 10 µg/mL is 99% and the inhibition at 100 µg/mL was found to be 100%. In addition, the “Footpad swelling (%)” value in series [3] (setting [9]) came out at 102%. Moreover, the “Footpad swelling (%)” value in series [3] (setting [10]) is reported as 33%. In series [4], the “suppression” value is on record as “highly effective in suppressing”, the inhibition at 10 µg/mL came out at 96% and testing at 100 µg/mL gave an inhibition of 100%.

`N=C(N)NCCCCCCC(=O)NC(O)C(=O)NCCCCNCCCN` (centres unmarked) [(1), N-[4-(3-aminopropyl)aminobutyl]-2-(7-guanidinoheptaneamido)-2-hydroxyethaneamide]: the “percentage inhibition” value in the series with CDFl mice turned out to be 98.5%. The LD50 in series [1] fell in the range of 25 to 50 mg/kg. Also, the “inhibition of the reaction … (in words)” value in series [2] is “strong ability to inhibit”. The inhibition at 10 µg/mL in series [2] was determined as 93%; in series [4], 98%. Also, the inhibition at 100 µg/mL in series [2] and in series [4] was 100% in each case. Besides, the “Footpad swelling (%)” value was 72% in series [3] (setting [7]), 87% in series [3] (setting [8]), 29% in series [3] (setting [5]) and 15% in series [3] (setting [6]). Besides, the “suppression” value in series [4] is “highly effective in suppressing”.
